{"source": "patent US12370170B2", "about": "“Composition comprising naphthoquinone-based compound as active ingredient, for preventing or ameliorating fatigue, cachexia, pain, cognitive decline and hematopoietic stem cell reduction which are side effects related to anticancer drug treatment” (NADIANBIO LTD., priority 2016, dated 2025)", "type_in_all_cases": "in vivo, C57BL/6 mice", "key": {"[1]": {"tested_on": "inflammatory cytokines TNF-α and IL-1β", "assay": "Brain inflammatory response: TNF-α and IL-1β in hypothalamus (RT-PCR, ELISA), 4×ACP animal model", "settings": "β-lapachone 20 mg/kg oral, ELISA of homogenate", "experimental": "In this invention, 11 weeks old C57BL/6 mice were used. All the mice used in the experiments of the invention were raised in an aseptic animal room at the temperature of 22˜26 L with the humidity of 55˜60%. The mice were allowed to take general solid feed (SAMTACO Co., Ltd., Korea) and water freely. The mice were adapted for 1 week before the experiment. All the experiments were performed after obtaining approval from the clinical trial management committee in accordance with the laboratory animal care and ethics regulations of Wonkwang University. The mouse animal model of the present invention was treated with different anticancer drugs. Particularly, one kind of anticancer drug was administered intraperitoneally one time or more, or several kinds of anticancer drugs were administered once or more times or at different concentrations, leading to the establishment of the animal model of the invention. In the adriamycin-induced animal model, the mice were divided into 6 groups as follows: the control group administered with PBS (Control, 5 mice), the group administered intraperitoneally with adriamycin (4 mg/kg/day) 3 times (ADR, 5 mice), the group administered orally with dunnione or β-lapachone from 3 days before the adriamycin treatment daily (20 mg/kg, 5 mice), and the group administered with dunnione or β-lapachone (20 mg/kg, 5 mice). 4 days after the final adriamycin treatment, analysis of the mice was performed.\nThe present inventors established an animal model co-treated with three different anticancer drugs in this experiment. The anticancer drugs used herein were adriamycin (ADR), cyclophosphamide (CYP) and paclitaxel (PTX), which were indicated as ACP. […]\nA homogenate was prepared with the mouse hypothalamus extracted from the 4×ACP animal model prepared by the same manner as described in Example 8. Then, the expressions of the inflammatory cytokines TNF-α and IL-1β in the brain tissue were analyzed by ELISA."}, "orexin": {"tested_on": "orexin", "assay": "Orexin protein in hypothalamus by ELISA, 4×ACP animal model", "settings": "β-lapachone 20 mg/kg oral daily from 3 days before, 2 days after ACP", "experimental": "(§1) In this invention, 11 weeks old C57BL/6 mice were used. All the mice used in the experiments of the invention were raised in an aseptic animal room at the temperature of 22˜26 L with the humidity of 55˜60%. The mice were allowed to take general solid feed (SAMTACO Co., Ltd., Korea) and water freely. The mice were adapted for 1 week before the experiment. All the experiments were performed after obtaining approval from the clinical trial management committee in accordance with the laboratory animal care and ethics regulations of Wonkwang University. The mouse animal model of the present invention was treated with different anticancer drugs. Particularly, one kind of anticancer drug was administered intraperitoneally one time or more, or several kinds of anticancer drugs were administered once or more times or at different concentrations, leading to the establishment of the animal model of the invention. […]\nTo analyze orexin protein in the 4×ACP animal model prepared by the same manner as described in Example 8, the hypothalamus of the mouse was extracted, followed by the preparation of a homogenate. Orexin (MyBioSource, MBS2505504) was analyzed by ELISA to investigate the regulatory effect of β-lapachone on orexin."}, "[2]": {"tested_on": "inflammatory cytokines TNF-α, IL-1β, IL-6 and IL-17", "assay": "Plasma inflammatory cytokines by ELISA in adriamycin animal model", "settings": "adriamycin 4 mg/kg/day i.p. ×3; compound 20 mg/kg oral daily from 3 days before; 4 days after final adriamycin; vs adriamycin group", "experimental": "as §1, with “drugs.” for “drugs. Particularly, one kind of anticancer drug was administered intraperitoneally one time or more, or several kinds of anticancer drugs were administered once or more times or at different concentrations, leading to the establishment of the animal model of the invention.”\nParticularly, plasma was isolated from the adriamycin animal model prepared by the same manner as described in Example 4, and the inflammatory cytokines TNF-α (R&D Systems, MTA00B), IL-1β (R&D Systems, MLB00C), IL-6 (R&D Systems, M6000B) and IL-17 (R&D Systems, M1700) were analyzed by ELISA (enzyme-linked immunosorbent assay).\nTo investigate the regulatory effect of β-lapachone on adriamycin induced inflammatory cytokines, plasma was isolated from the adriamycin animal model prepared by the same manner as described in Example 4, and the inflammatory cytokines TNF-α, IL-1β, IL-6 and IL-17 were analyzed by ELISA."}}}
{"compound": "CC1(C)CCC2=C(O1)c1ccccc1C(=O)C2=O", "note": "[β-lapachone, 3,4-Dihydro-2,2-dimethyl-2H-naphtho(1,2-b) pyran-5,6-dione]", "values": [{"measurement": "up-regulations of TNF-α and IL-1β in the hypothalamus", "setting": "[1]", "result": "significantly suppressed"}, {"measurement": "orexin reduction in the hypothalamus", "setting": "orexin", "result": "significantly restored"}, {"measurement": "level of inflammatory cytokines (TNF-α, IL-1β, IL-6, IL-17) in plasma", "setting": "[2]", "result": "significantly reduced"}]}
